Laboratory results reported in patent publication US12036212B2, “Enhancement of tumor response to chemotherapy by activation of the asmase/ceramide pathway through timed administration of a short-acting anti-angiogenic agent” (Memorial Sloan-Kettering Cancer Center, priority 2014, dated 2024).

Tests used:
[1] = in vivo; cited from earlier work
ceramide [2] = test: Ceramide generation in HCAEC; type: cell-based, human; details: paclitaxel 100 nM, etoposide 50 μM, cisplatin 0.1-50 μM
Description: HCAEC were obtained from Clonetics™ Coronary Artery Endothelial Cell Systems (Cambrex Bio Science Inc.). For HCAEC culturing and sub-culturing Clonetics cell system components were used: EBM®-2, Endothelial Cell Basal Medium-2 with addition of Clonetics EGM-2-MV SingleQuots containing growth supplements (Cambrex) (Biomedical Technologies, Inc.). For sub-culturing, monolayers were dissociated with Clonetics® Trypsin/EDTA solution for 2-3 min at 22° C. at a split ratio of 1:4 to expand the cell population for experiments. HCAEC cultures were maintained at 37° C. in 5% CO2 humidified incubators.
After treatment, cells were placed on ice, washed with cold PBS, and lipids were extracted by addition of scraped cells in methanol to an equal volume of chloroform and 0.6 volume of buffered saline/EDTA solution (135 mM NaCl, 4.5 mM KCl, 1.5 mM CaCl2), 0.5 mM MgCl2, 5.6 mM glucose, 10 mM HEPES pH 7.2, 10 mM EDTA). […] After 30 minutes at room temperature, the reaction was stopped by extraction of lipids with 1 ml of chloroform:methanol:1 N HCl (100:100:1), 170 μl of buffered saline solution (BSS) (135 mM NaCl, 1.5 mM CaCl2, 0.5 mM MgCl2, 5.6 mM glucose, and 10 mM HEPES (pH 72), and 30 μl of 100 mM EDTA. The lower organic phase was dried under N2. Ceramide-1 phosphate was resolved by thin-layer chromatography on silica gel 60 plates (Whatman) using a solvent system of chloroform:methanol:acetic acid (65:15:5, v/v/v) and detected by autoradiography, and incorporated ^32P was quantified by liquid scintillation counting. The level of ceramide was determined by comparison with a standard curve generated concomitantly of known amounts of ceramide.
(§1) To determine the generality of the results observed, experiments were carried out using an additional endothelial cell line, human coronary artery endothelial cells (HCAEC); experiments were also performed using a different chemotherapeutic agent. […] Next, HCAEC were treated with paclitaxel (100 nM) (data not shown) and etoposide (50 μM) (FIG. 1F), and ceramide generation was evaluated. […]

ASMase = ASMase activity radioenzymatic assay in BAEC; type: cell-based, bovine; details: etoposide 50 μM
Description: (§2) BAEC were established from the intima of bovine aorta as described^1. Stock cultures were grown in 100-mm dishes in Dulbecco's modified Eagle's medium (DMEM) supplemented with glucose (1 g/liter), 5% heat-inactivated calf serum (CS), penicillin (50 units/ml), and streptomycin (50 μg/ml). Purified human recombinant bFGF (1 ng/ml; R&D Systems, Inc., Minneapolis, MN) was added every other day during the exponential growth phase. […] These plateau phase cells were either used for experiments, or further sub-cultured (up to a maximum of 10 times) at a split ratio of 1:8. For sub-culturing, monolayers were dissociated with STV (0.05% trypsin and 0.02% EDTA in PBS) for 2-3 min at 22° C., washed twice in 5% CS-DMEM, and resuspended in DMEM with supplements as above. These mild conditions of trypsinization were sufficient to detach cells but not injure, stimulate, or affect cell function in a detectable way. BAEC were maintained at 37° C. in 10% CO2 humidified incubators.
ASMase activity was quantified by radioenzymatic assay using [^14C-methylcholine]sphingomyelin (Amersham) as substrate as described (Schissel et al. J Biol Chem, 271, 18431-18436, 1996). Cell lysates were incubated with [^14C-methylcholine]-sphingomyelin substrate (0.026 mCi/9.5 nmol) in 250 mM sodium acetate, pH 5.0 supplemented with 0.1% Triton X-100 and 1 mM EDTA or 0.1 mM ZnCl. Reactions were terminated after 1 h with CHCl3:MeOH:1N HCl (100:100:1, v/v/v), and [^14C-methylcholine]phosphocholine product in the aqueous layer of the Folch extract was quantified using a Beckman Packard 2200 CA Tricarb scintillation counter. For detection of ASMase activity in patients, 10 μl of serum was used.
To test the effect of chemotherapy on ASMase signaling and ceramide production, BAEC were treated with paclitaxel (100 nM) and ASMase activity was determined by radioenzymatic assay (Rotolo et al, infra) using [^14C-methylcholine] sphingomyelin (Amersham) as substrate (FIG. 1A). Induction of ASMase activity was observed within 5 minutes after treatment, and the activation continued for 30 minutes. Ceramide generation was monitored using the diacylglycerol kinase assay (Stancevic et al. PLoS ONE 8, e69025, 2013). […] In further support of this, pre-incubation of BAEC with nystatin prior to treatment with chemotherapy inhibits chemotherapy-induced apoptosis (FIG. 3).
To determine the generality of the results observed, experiments were carried out using an additional endothelial cell line, human coronary artery endothelial cells (HCAEC); experiments were also performed using a different chemotherapeutic agent. […] Next, HCAEC were treated with paclitaxel (100 nM) (data not shown) and etoposide (50 μM) (FIG. 1F), and ceramide generation was evaluated.
To further establish the generality of ASMase activation by various chemotherapeutic agents, BAEC and HCAEC were treated with increasing doses of cisplatin (0.1-50 μM) (data not shown). […] The ASMase/ceramide pathway was activated by chemotherapeutic agents that belong to different classes of chemotherapeutic agents, such as: taxanes, topoisomerase inhibitors, and nucleoside analog metabolic inhibitors. Since such chemotherapy agents are characterized by distinct mechanisms of action in tumor cells, it is surprising that a group of such distinct agents converges on a common molecular (ASMase/ceramide) axis in endothelium. The present confirmation that distinct chemotherapeutic agents activate the ASMase/ceramide pathway permits the present inventors to take into account the results of experiments using single dose radiotherapy, which has been reported to activate the same pathway (Rao, S. S. et al., Axitinib sensitization of high Single Dose Radiotherapy. Radiotherapy and Oncology: Journal of the European Society for Therapeutic Radiology and Oncology 111, 88-93, doi:10.1016/j.radonc.2014.02.010 (2014)).
Gemcitabine was able to activate ASMase in cultured endothelial cells. […]

BAEC = test: Apoptosis in vitro (Hoechst nuclear staining) in BAEC; type: cell-based, bovine; details: 8 hours; for Effect on etoposide-induced apoptosis: BAEC pre-incubated 30 min with bFGF 2 ng/mL, VEGF 2 ng/mL or nystatin 30 μg/mL, etoposide 50 μM
Description: Apoptosis was assessed in vitro by examining morphologic changes in nuclear chromatin using bis-benzimide trihydrochloride (Hoechst #33258; Sigma-Aldrich, Milwaukee WI). BAEC and HCAEC monolayer cultures were first detached using 0.25% trypsin and 0.02% EDTA in HBSS and then combined with the floating population of cells. The cell pellet was washed in PBS, resuspended in 3% paraformaldehyde, and incubated for 10 min at 22° C. Following the removal of fixative, cells were resuspended in PBS containing 8 μg/ml of Hoechst-33258. Following a 15-min incubation at 22° C., cells were placed on a glass slide, and scored for the incidence of apoptotic chromatin changes using fluorescence microscope.
Since the ASMase/ceramide pathway is known to play a critical role in endothelial injury and dysfunction, BAEC and HCAEC were treated with paclitaxel (100 nM), etoposide (50 μM), and cisplatin (0.1-50 μM), and endothelial apoptosis was assessed.
To set the basis for experiments involving evaluation of anti-angiogenic therapy in combination with chemotherapy, and the role of ASMase/ceramide pathway in this process, the effects of various factors on the chemotherapy induced cell death were assessed. BAEC were pre-incubated for 30 min with bFGF (2 ng/mL), VEGF (2 ng/mL) or nystatin (30 μg/mL) prior to treatment with etoposide (50 μM), and apoptosis was evaluated after 8 hours using bis-benzamide trihydrochloride staining (FIG. 3).

ceramide [3] = test: Ceramide generation (diacylglycerol kinase assay) in BAEC; type: cell-based, bovine; details: etoposide 50 μM
Description: as §2
After treatment, cells were placed on ice, washed with cold PBS, and lipids were extracted by addition of scraped cells in methanol to an equal volume of chloroform and 0.6 volume of buffered saline/EDTA solution (135 mM NaCl, 4.5 mM KCl, 1.5 mM CaCl2), 0.5 mM MgCl2, 5.6 mM glucose, 10 mM HEPES pH 7.2, 10 mM EDTA). Lipids in the organic phase extract were dried under N2 and subjected to mild alkaline hydrolysis (0.1 N methanolic KOH for 1 hour at 37° C.) to remove glycerophospholipids. Samples were re-extracted, and the organic phase was dried under N2. Ceramide contained in each sample was resuspended in a 100 μl reaction mixture containing 150 μg of cardiolipin, 280 μM diethylenetriaminepentaacetic acid, 51 mM octyl-β-glucopyranoside (Calbiochem), 50 mM NaCl, 51 mM imidazole, 1 mM EDTA, 12.5 mM MgCl2, 2 mM dithiothreitol, 0.7% glycerol, 70 μM β-mercaptoethanol, 1 mM ATP, 10 μCi of [γ-^32P]ATP, 35 μg/ml Escherichia coli diacylglycerol kinase (Calbiochem) at pH 6.5. After 30 minutes at room temperature, the reaction was stopped by extraction of lipids with 1 ml of chloroform:methanol:1 N HCl (100:100:1), 170 μl of buffered saline solution (BSS) (135 mM NaCl, 1.5 mM CaCl2, 0.5 mM MgCl2, 5.6 mM glucose, and 10 mM HEPES (pH 72), and 30 μl of 100 mM EDTA. The lower organic phase was dried under N2. Ceramide-1 phosphate was resolved by thin-layer chromatography on silica gel 60 plates (Whatman) using a solvent system of chloroform:methanol:acetic acid (65:15:5, v/v/v) and detected by autoradiography, and incorporated ^32P was quantified by liquid scintillation counting. The level of ceramide was determined by comparison with a standard curve generated concomitantly of known amounts of ceramide.
To test the effect of chemotherapy on ASMase signaling and ceramide production, BAEC were treated with paclitaxel (100 nM) and ASMase activity was determined by radioenzymatic assay (Rotolo et al, infra) using [^14C-methylcholine] sphingomyelin (Amersham) as substrate (FIG. 1A). […] Ceramide generation was monitored using the diacylglycerol kinase assay (Stancevic et al. PLoS ONE 8, e69025, 2013). […]
as §1

CRM = CRM detection by confocal microscopy in BAEC; type: cell-based, bovine; details: nystatin 30 μg/mL 30 min pre-treatment, paclitaxel 100 nM
Description: BAEC were grown on CC2-treated chamber slides (Nalge Nunc International Corp., Naperville, USA) and then exposed to etoposide or paclitaxel with or without pre-incubation with Nystatin (30 μg/ml, Sigma) for 30 min. BAEC were then washed in cold PBS, fixed for 15 min in fresh 2% paraformaldehyde, washed 2× with cold PBS, and blocked with 5% FBS in PBS for 20 min at room temperature. Cells were stained with anti-ceramide MID 15B4 IgM (Alexis Corporation) at 1:50 dilution for 1 hour at room temperature, washed 3× in PBS, and thereafter with Texas Red-conjugated secondary antibody (Jackson Immunoresearch Laboratories, Inc.) at 1:500 dilution for 1 hour at room temperature. Nonspecific fluorescence was excluded using isotype control IgM (BD Biosciences). Cells were washed 3×, stained with DAPI and mounted in 0.1% paraphenylenediamine. Fluorescence was detected using Leica TCS SP2 AOBS 1- and 2-photon laser scanning confocal (DMRXA2 upright stand) microscope coupled with MetaMorph 7.5 (Molecular Devices). Number of CRMs in membranes of endothelial cells was analyzed using MetaMorph 7.5 software that allowed outlining of regions containing CRMs based on two criteria: 1) CRM size (≥500 nm); 2) Intensity of ceramide staining. Mice: asmase^+/+ and asmase^−/− mice, maintained in a SCID background, were propagated using heterozygous breeding pairs and genotyped as previously described (Santana et al. Cell, 86, 189-199, 1996; Grassme et al. Nat Med 9, 322-330 (2003). 6-12 week-old C57BL6/SV129 male mice, purchased from The Jackson Laboratory (Bar Harbor).
To test the effect of chemotherapy on ASMase signaling and ceramide production, BAEC were treated with paclitaxel (100 nM) and ASMase activity was determined by radioenzymatic assay (Rotolo et al, infra) using [^14C-methylcholine] sphingomyelin (Amersham) as substrate (FIG. 1A). Induction of ASMase activity was observed within 5 minutes after treatment, and the activation continued for 30 minutes. Ceramide generation was monitored using the diacylglycerol kinase assay (Stancevic et al. PLoS ONE 8, e69025, 2013). […]

Compound: Cc1[nH]c(/C=C2\C(=O)Nc3ccccc32)c(C)c1CCC(=O)O [SU6668]
- Average half-life [1]: 3.6 h

Compound: CNC(=O)c1ccccc1Sc1ccc2c(/C=C/c3ccccn3)n[nH]c2c1 [axitinib]
- Average half-life [1]: 2.5 to 6 h

Compound: COc1cc2nccc(Oc3ccc(NC(=O)C4(C(=O)Nc5ccc(F)cc5)CC4)cc3)c2cc1OC [cabozantinib]
- Average half-life [1]: 55 h

Compound: COc1cc2c(Oc3ccc4[nH]c(C)cc4c3F)ncnc2cc1OCCCN1CCCC1 [cediranib]
- Average half-life [1]: 22 to 27 h

Compound: COc1cc([C@@H]2c3cc4c(cc3[C@@H](O[C@@H]3O[C@@H]5CO[C@@H](C)O[C@H]5[C@H](O)[C@H]3O)[C@H]3COC(=O)[C@H]23)OCO4)cc(OC)c1O [etoposide]
- Ceramide generation (ceramide [2]): leads to the generation of ceramide
- ASMase activation remained for (ASMase): 30 min
- ASMase activation (ASMase; cisplatin 0.1-50 μM, gemcitabine 100 nM time-course): activation of ASMase
- Apoptotic response (BAEC; bovine endothelial cells, cisplatin up to 50 μM, etoposide 50 μM alone): significantly induces apoptosis
- Ceramide formation remained for (ceramide [3]): 30 min
- Ceramide generation (ceramide [3]; paclitaxel 100 nM, cisplatin 0.1-50 μM): ceramide formation within a few minutes

Compound: C[C@@H]1[C@H](O)[C@@H](C)/C=C/C=C/CC/C=C/C=C/C=C/C=C/C(O[C@H]2O[C@H](C)[C@@H](O)[C@H](N)[C@@H]2O)CC2O[C@](O)(CC(O)C(O)CCC(O)CC(O)CC(O)CC(=O)O[C@H]1C)CC(O)C2C(=O)O (some centres unmarked) [nystatin]
- Effect on paclitaxel-induced CRM formation (CRM): prevented the formation of CRMs
- Effect on etoposide-induced apoptosis (BAEC): substantially inhibits etoposide-induced apoptosis

Compound: Cc1ccc(Nc2nccc(N(C)c3ccc4c(C)n(C)nc4c3)n2)cc1S(N)(=O)=O [pazopanib]
- Average half-life [1]: about 30 hours

Compound: Cc1ccc(C(=O)Nc2ccc(CN3CCN(C)CC3)c(C(F)(F)F)c2)cc1C#Cc1cnc2cccnn12 [ponatinib]
- Average half-life [1]: 24 h

Compound: CNC(=O)c1cc(Oc2ccc(NC(=O)Nc3ccc(Cl)c(C(F)(F)F)c3)cc2)ccn1 [sorafenib]
- Average half-life [1]: 25 to 48 h

Compound: CCN(CC)CCNC(=O)c1c(C)[nH]c(/C=C2\C(=O)Nc3ccc(F)cc32)c1C [sunitinib]
- Average half-life [1]: 40 to 60 h

Compound: Clc1ccc(Nc2nnc(Cc3ccncc3)c3ccccc23)cc1 [vatalanib]
- Average half-life [1]: 4.7 h

Compound: VEGF
- Effect on etoposide-induced apoptosis (BAEC): substantially inhibits etoposide-induced apoptosis

Compound: anginex
- Half-life [1]: ~50 min

Compound: bFGF: basic fibroblast growth factor, pro-angiogenic factor
- Effect on etoposide-induced apoptosis (BAEC): substantially inhibits etoposide-induced apoptosis
